PubChem BioAssay AID328 (DTP/NCI, 2004)
Where “and” joins values, the source holds several entries; their conditions need not be identical. Identical values can stand only once. Toxic doses and inconclusive results are not listed.

System: BDF1 mice, P388 leukemia ip, median survival T/C
Assay: NCI In Vivo Anticancer Drug Screen. Data for tumor model P388 Leukemia (intraperitoneal) in B6D2F1 (BDF1) mice
Conditions: endpoint: median survival time, higher = longer survival
How it was run: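 Each value expresses how treatment altered survival: treated-mouse outcome over vehicle-mouse outcome, both groups bearing the transplanted tumour.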

[1] = dose: 100.0 mg/kg/injection, schedule: Q01DX009 (ip), vehicle: saline with Tween-80
[2] = dose: 200.0 mg/kg/injection, schedule: Q01DX009 (ip), vehicle: saline with Tween-80
[3] = dose: 25.0 mg/kg/injection, schedule: Q01DX009 (ip), vehicle: saline with Tween-80
[4] = dose: 50.0 mg/kg/injection, schedule: Q01DX009 (ip), vehicle: saline with Tween-80
[5] = dose: 6.25 mg/kg/injection, schedule: Q01DX009 (ip), vehicle: saline
[6] = dose: 12.5 mg/kg/injection, schedule: Q01DX009 (ip), vehicle: saline
[7] = dose: 50.0 mg/kg/injection, schedule: Q01DX009 (ip), vehicle: Klucel (hydroxypropylcellulose) (HPC)
[8] = dose: 100.0 mg/kg/injection, schedule: Q01DX009 (ip), vehicle: Klucel (hydroxypropylcellulose) (HPC)
[9] = dose: 200.0 mg/kg/injection, schedule: Q01DX009 (ip), vehicle: Klucel (hydroxypropylcellulose) (HPC)

In the case of `CCCCNC(C)(C)COC(=O)/C=C/c1ccc(OCCCC)cc1`, the T/C (dose: 6.25 mg/kg/injection, schedule: Q01DX010 (ip), vehicle: saline) is reported as 100 % of control, the T/C (dose: 12.5 mg/kg/injection, schedule: Q01DX010 (ip), vehicle: saline) is reported as 100 % of control and the T/C (dose: 25.0 mg/kg/injection, schedule: Q01DX010 (ip), vehicle: saline) is reported as 113 % of control. The T/C (dose: 50.0 mg/kg/injection, schedule: Q01DX010 (ip), vehicle: saline) was 100 % of control.
`CCCCN(CCCC)CC(O)c1ccnc2cc3c(cc12)OCO3` (centres undefined) was tested, and the T/C (dose: 25.0 mg/kg/injection, schedule: Q01DX001 (ip), vehicle: Klucel (hydroxypropylcellulose) (HPC)) was 104 % of control, the T/C (dose: 50.0 mg/kg/injection, schedule: Q01DX001 (ip), vehicle: Klucel (hydroxypropylcellulose) (HPC)) was 104 % of control and the T/C (dose: 100.0 mg/kg/injection, schedule: Q01DX001 (ip), vehicle: Klucel (hydroxypropylcellulose) (HPC)) was 100 % of control. For the same compound, the T/C (dose: 100.0 mg/kg/injection, schedule: Q01DX001 (ip), vehicle: saline with Tween-80) was 100 % of control.
With `COc1cc(OC)cc(C(=O)Br)c1` the T/C [1] was 91 % of control, the T/C (dose: 100.0 mg/kg/injection, schedule: Q04DX003 (ip), vehicle: saline with Tween-80) was 90 % of control and the T/C [2] was 91 % of control. For the same compound, the T/C (dose: 200.0 mg/kg/injection, schedule: Q04DX003 (ip), vehicle: saline with Tween-80) was 90 % of control, the T/C (dose: 400.0 mg/kg/injection, schedule: Q01DX009 (ip), vehicle: saline with Tween-80) was 91 % of control and the T/C (dose: 400.0 mg/kg/injection, schedule: Q04DX003 (ip), vehicle: saline with Tween-80) was 95 % of control.
For `CCS(=O)(=O)CC`, the T/C (dose: 100.0 mg/kg/injection, schedule: Q04DX003 (ip), vehicle: saline sonified) was 95 % of control, the T/C (dose: 200.0 mg/kg/injection, schedule: Q04DX003 (ip), vehicle: saline sonified) was 100 % of control and the T/C (dose: 400.0 mg/kg/injection, schedule: Q04DX003 (ip), vehicle: saline sonified) was 100 % of control.
With `Cn1c(C(C)(C)O)cnc1[N+](=O)[O-]` the T/C (dose: 12.5 mg/kg/injection, schedule: Q01DX009 (ip), vehicle: saline with Tween-80) was 105 % of control, the T/C [3] was 105 % of control and the T/C [4] was 110 % of control.
In the case of `COC1C=CC=CC=C1`, the T/C (dose: 15.0 mg/kg/injection, schedule: Q01DX009 (ip), vehicle: saline with Tween-80) is reported as 113 % of control, the T/C (dose: 30.0 mg/kg/injection, schedule: Q01DX009 (ip), vehicle: saline with Tween-80) is reported as 100 % of control and the T/C (dose: 60.0 mg/kg/injection, schedule: Q01DX009 (ip), vehicle: saline with Tween-80) is reported as 113 % of control.
`C=C1C(=O)OC2CC(C)C3C4OC4C(O)C3(C)C(O)C12` (centres undefined) was tested, and the T/C [5] was 100 % of control, the T/C (dose: 9.38 mg/kg/injection, schedule: Q01DX009 (ip), vehicle: saline) was 111 % of control and the T/C [6] was 100 % of control. For the same compound, the T/C (dose: 16.5 mg/kg/injection, schedule: Q01DX009 (ip), vehicle: saline) was 101 % of control, the T/C (dose: 18.75 mg/kg/injection, schedule: Q01DX009 (ip), vehicle: saline) was 120 % of control and the T/C (dose: 25.0 mg/kg/injection, schedule: Q01DX009 (ip), vehicle: saline) was 104 % of control and 108 % of control. The T/C (dose: 37.5 mg/kg/injection, schedule: Q01DX009 (ip), vehicle: saline) was 112 % of control and the T/C (dose: 56.25 mg/kg/injection, schedule: Q01DX009 (ip), vehicle: saline) was 110 % of control.
For `C[Si](C)(C)C1([Si](C)(C)C)CO1`, the T/C (dose: 100.0 mg/kg/injection, schedule: Q04DX003 (ip), vehicle: saline) was 108 % of control, the T/C (dose: 200.0 mg/kg/injection, schedule: Q04DX003 (ip), vehicle: saline) was 109 % of control and the T/C (dose: 400.0 mg/kg/injection, schedule: Q04DX003 (ip), vehicle: saline) was 108 % of control.
For `Cc1cc(C)c(OC(=O)CNC(=O)C(C)NC(=O)OC(C)(C)C)c(C)c1` (centres undefined), the T/C (dose: 50.0 mg/kg/injection, schedule: Q01DX005 (ip), vehicle: Klucel (hydroxypropylcellulose) (HPC)) was 91 % of control, the T/C (dose: 100.0 mg/kg/injection, schedule: Q01DX005 (ip), vehicle: Klucel (hydroxypropylcellulose) (HPC)) was 97 % of control and the T/C (dose: 200.0 mg/kg/injection, schedule: Q01DX005 (ip), vehicle: Klucel (hydroxypropylcellulose) (HPC)) was 91 % of control.
With `O=S1(=O)CCNNCC1` the T/C (dose: 25.0 mg/kg/injection, schedule: Q01DX001 (ip), vehicle: saline) was 110 % of control, the T/C (dose: 50.0 mg/kg/injection, schedule: Q01DX001 (ip), vehicle: saline) was 105 % of control and the T/C (dose: 100.0 mg/kg/injection, schedule: Q01DX001 (ip), vehicle: saline) was 120 % of control. The T/C (dose: 200.0 mg/kg/injection, schedule: Q01DX001 (ip), vehicle: saline) was 110 % of control.
For `CCC[CH2][Sn]1([CH2]CCC)[O]OC(c2ccc(OC)cc2)[O]1` (centres undefined), the T/C (dose: 3.12 mg/kg/injection, schedule: Q01DX009 (sc), vehicle: olive oil, sesame oil, peanut oil) was 112 % of control and the T/C (dose: 6.25 mg/kg/injection, schedule: Q01DX009 (sc), vehicle: olive oil, sesame oil, peanut oil) was 99 % of control.
With `COC(=O)C1=C(\N2CCOCC2)CCCCC/C=C\1C(=O)OC` the T/C [4] was 100 % of control and the T/C [2] was 100 % of control.
With `Cc1ccc(C(O)(c2ccccc2)C2C(c3ccccc3)N2C2CCCCC2)cc1` (centres undefined) the T/C (dose: 50.0 mg/kg/injection, schedule: Q01DX001 (ip), vehicle: saline sonified) was 96 % of control, the T/C (dose: 100.0 mg/kg/injection, schedule: Q01DX001 (ip), vehicle: saline sonified) was 96 % of control and the T/C (dose: 200.0 mg/kg/injection, schedule: Q01DX001 (ip), vehicle: saline sonified) was 92 % of control.
`COC(=O)C[CH2][Pb]([c]1ccccc1)([c]1ccccc1)[c]1ccccc1` was tested, and the T/C [3] was 106 % of control and the T/C [4] was 98 % of control.
For `CCCCCCCCCCC[N+](C)(C)CCCCCC[N+](C)(C)CCCCCCCCCCC`, the T/C (dose: 1.56 mg/kg/injection, schedule: Q01DX009 (ip), vehicle: saline) was 90 % of control and 108 % of control, the T/C (dose: 3.12 mg/kg/injection, schedule: Q01DX009 (ip), vehicle: saline) was 103 % of control and the T/C (dose: 3.13 mg/kg/injection, schedule: Q01DX009 (ip), vehicle: saline) was 102 % of control and 118 % of control. The T/C [5] was 115 % of control and 124 % of control and the T/C [6] was 93 % of control and 109 % of control.
With `CC1=C(C)C2(C)C1(C)C1(C)C(C)=C(C)C21C` (centres undefined) the T/C [7] was 100 % of control, the T/C [8] was 90 % of control and the T/C [9] was 105 % of control.
`O=c1c2ccccc2cc2ccccn12` was tested, and the T/C [8] was 109 % of control, the T/C (dose: 100.0 mg/kg/injection, schedule: Q04DX003 (ip), vehicle: Klucel (hydroxypropylcellulose) (HPC)) was 91 % of control and the T/C [9] was 109 % of control. For the same compound, the T/C (dose: 200.0 mg/kg/injection, schedule: Q04DX003 (ip), vehicle: Klucel (hydroxypropylcellulose) (HPC)) was 95 % of control.
For `CC(C)NC(=O)C12CC3CC(CC(C3)C1)C2`, the T/C [4] was 92 % of control, the T/C [1] was 87 % of control and the T/C [2] was 100 % of control.
`O=C(Nc1ccc(C2=NCCCN2)cc1)c1ccc(NC(=O)c2ccc(C3=NCCCN3)cc2)cc1` was tested, and the T/C (dose: 13.2 mg/kg/injection, schedule: Q04DX003 (ip), vehicle: saline with Tween-80) was 160 % of control and 168 % of control, the T/C (dose: 20.0 mg/kg/injection, schedule: Q04DX003 (ip), vehicle: saline with Tween-80) was 181 % of control and 220 % of control and the T/C (dose: 30.0 mg/kg/injection, schedule: Q04DX003 (ip), vehicle: saline with Tween-80) was 263 % of control and 300 % of control.
For `Cc1cc(C)c(N)c(C)c1N`, the T/C (dose: 25.0 mg/kg/injection, schedule: Q01DX009 (ip), vehicle: Klucel (hydroxypropylcellulose) (HPC)) was 118 % of control, the T/C [7] was 95 % of control and the T/C (dose: 100.0 mg/kg/injection, schedule: Q04DX003 (ip), vehicle: other) was 105 % of control. For the same compound, the T/C (dose: 200.0 mg/kg/injection, schedule: Q04DX003 (ip), vehicle: other) was 100 % of control and the T/C (dose: 400.0 mg/kg/injection, schedule: Q04DX003 (ip), vehicle: other) was 105 % of control.
`CCCCc1ccc(C#N)nc1` was tested, and the T/C [4] was 98 % of control, the T/C [1] was 106 % of control and the T/C [2] was 108 % of control.
With `Cc1n[nH]c(C)c1Br` the T/C (dose: 75.0 mg/kg/injection, schedule: Q01DX009 (ip), vehicle: saline with Tween-80) was 95 % of control, the T/C (dose: 150.0 mg/kg/injection, schedule: Q01DX009 (ip), vehicle: saline with Tween-80) was 98 % of control and the T/C (dose: 300.0 mg/kg/injection, schedule: Q01DX009 (ip), vehicle: saline with Tween-80) was 95 % of control.
